Source: ChEMBL document CHEMBL1909046, “DrugMatrix in vitro pharmacology data”

Experiments:
[1] = molecular target: T1, C-C chemokine receptor type 4 (Homo sapiens, UniProt P51679); type: cell membranes, Chem-1, Membrane; settings: chem-1; further: in other assays of this panel Not Active means under 50% inhibition at 10 µM
T1 sequence (P51679 whole entry): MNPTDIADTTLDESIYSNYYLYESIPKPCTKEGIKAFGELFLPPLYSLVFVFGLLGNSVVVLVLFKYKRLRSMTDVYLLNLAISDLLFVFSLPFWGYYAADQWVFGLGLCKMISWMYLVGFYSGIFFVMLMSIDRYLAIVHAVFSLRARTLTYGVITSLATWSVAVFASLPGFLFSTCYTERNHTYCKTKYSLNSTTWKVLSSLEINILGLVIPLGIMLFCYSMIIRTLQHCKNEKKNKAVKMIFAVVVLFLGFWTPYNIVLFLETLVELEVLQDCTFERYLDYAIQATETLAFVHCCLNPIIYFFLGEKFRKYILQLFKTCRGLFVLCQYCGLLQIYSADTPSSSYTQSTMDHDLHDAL

[2] = DRUGMATRIX: Calcium Channel Type L, Dihydropyridine radioligand binding (ligand: [3H] Nitrendipine); type: cell membranes, Rattus norvegicus, Wistar, Cerebral cortex, Membrane; settings: Not Active = under 50% inhibition at 10 µM
[3] = DRUGMATRIX: Phosphodiesterase PDE4 enzyme inhibition (substrate: [3H]cAMP + cAMP); settings: u-937; Not Active = under 50% inhibition at 10 µM
[4] = molecular target: Prostaglandin G/H synthase 1 (Homo sapiens, UniProt P23219); assay: biochemical; type: tissue-based, Platelet; settings: platelet;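 further: inhibition of COX-1 enzyme activity, with arachidonic acid supplied as substrate; in other assays of this panel Not Active means under 50% inhibition at 10 µM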
Sequence of Prostaglandin G/H synthase 1 (P23219 whole entry): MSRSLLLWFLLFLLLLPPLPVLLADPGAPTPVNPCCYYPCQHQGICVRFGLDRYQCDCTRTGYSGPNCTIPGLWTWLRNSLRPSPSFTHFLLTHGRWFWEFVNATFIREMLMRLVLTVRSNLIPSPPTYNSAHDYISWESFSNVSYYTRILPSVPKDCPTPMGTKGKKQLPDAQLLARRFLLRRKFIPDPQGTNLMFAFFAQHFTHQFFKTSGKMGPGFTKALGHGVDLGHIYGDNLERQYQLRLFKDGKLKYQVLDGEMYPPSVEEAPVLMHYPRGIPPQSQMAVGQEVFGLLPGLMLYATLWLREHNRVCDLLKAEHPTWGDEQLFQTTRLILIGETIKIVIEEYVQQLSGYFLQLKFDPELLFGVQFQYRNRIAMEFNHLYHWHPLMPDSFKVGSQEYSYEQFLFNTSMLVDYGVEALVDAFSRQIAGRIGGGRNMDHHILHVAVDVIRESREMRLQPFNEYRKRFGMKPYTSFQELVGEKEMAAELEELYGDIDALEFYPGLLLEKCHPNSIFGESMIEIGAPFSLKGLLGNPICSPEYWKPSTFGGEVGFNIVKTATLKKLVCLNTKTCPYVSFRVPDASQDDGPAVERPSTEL

[5] = DRUGMATRIX: Glutamate, AMPA radioligand binding (ligand: [3H] AMPA); type: cell membranes, Rattus norvegicus, Wistar, Cerebral cortex, Membrane; settings: Not Active = under 50% inhibition at 10 µM
[6] = molecular target: Protein phosphatase 3 catalytic subunit alpha (Homo sapiens, UniProt Q08209); set-up: species or system Escherichia coli;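 further: inhibition of calcineurin (PP2B) enzyme activity, measured with DiFMUP as the substrate; in other assays of this panel Not Active means under 50% inhibition at 10 µM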
[7] = molecular target: T2, Alpha-2C adrenergic receptor (Homo sapiens, UniProt P18825); assay: DRUGMATRIX: Adrenergic Alpha-2C radioligand binding (ligand: [3H] MK-912); type: cell membranes, Sf9, Membrane; settings: sf9
T2 sequence (P18825 whole entry): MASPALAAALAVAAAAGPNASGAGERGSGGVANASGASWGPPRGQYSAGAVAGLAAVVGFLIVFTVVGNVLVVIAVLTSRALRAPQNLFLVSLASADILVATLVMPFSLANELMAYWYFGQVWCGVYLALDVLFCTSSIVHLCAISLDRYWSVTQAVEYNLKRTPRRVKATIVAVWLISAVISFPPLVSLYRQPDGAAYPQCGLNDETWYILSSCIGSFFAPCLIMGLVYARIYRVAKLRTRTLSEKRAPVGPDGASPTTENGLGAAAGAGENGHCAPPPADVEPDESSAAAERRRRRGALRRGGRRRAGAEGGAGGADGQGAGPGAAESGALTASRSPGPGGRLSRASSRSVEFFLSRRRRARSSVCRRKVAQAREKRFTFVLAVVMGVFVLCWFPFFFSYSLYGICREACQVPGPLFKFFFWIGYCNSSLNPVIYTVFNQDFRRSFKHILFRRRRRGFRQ

CCN1C[C@]2(COC)[C@H](O)C[C@H](OC)[C@@]34[C@@H]5C[C@@]6(O)[C@H](OC(=O)c7ccccc7)[C@@H]5[C@@](OC(C)=O)([C@@H]([C@H](OC)[C@H]23)[C@@H]14)[C@@H](O)[C@@H]6OC [ACONITINE]
Not Active: IC50 [1] | IC50 [2] | Ki [2] | IC50 [3] | Ki [3] | IC50 [4] | IC50 [5] | Ki [5] | IC50 [6] | IC50 [7]

COc1ccc(C[C@H](N)C(=O)N[C@H]2[C@@H](O)[C@H](n3cnc4c(N(C)C)ncnc43)O[C@@H]2CO)cc1 [PUROMYCIN]
Not Active: IC50 [1] | IC50 [2] | Ki [2] | IC50 [3] | Ki [3] | IC50 [4] | IC50 [5] | Ki [5] | IC50 [6] | IC50 [7]

OC[C@H]1OC2C3[C@@H](CO)OC(O[C@H]4[C@H](O)[C@@H](O)[C@@H](O[C@H]5[C@H](O)[C@@H](O)[C@@H](O[C@H]6[C@H](O)[C@@H](O)[C@@H](O[C@H]7[C@H](O)[C@@H](O)[C@@H](O[C@H]8[C@H](O)[C@@H](O)[C@@H](O[C@H]9[C@H](O)[C@@H](O)C(OC1[C@H](O)[C@H]2O)O[C@@H]9CO)O[C@@H]8CO)O[C@@H]7CO)O[C@@H]6CO)O[C@@H]5CO)O[C@@H]4CO)[C@H](O)[C@H]3O
Not Active: IC50 [1] | IC50 [2] | Ki [2] | IC50 [3] | Ki [3] | IC50 [4] | IC50 [5] | Ki [5] | IC50 [6] | IC50 [7]

NC(N)=Nc1nc(CSCCC(N)=NS(N)(=O)=O)cs1 [FAMOTIDINE]
Not Active: IC50 [1] | IC50 [2] | Ki [2] | IC50 [3] | Ki [3] | IC50 [4] | IC50 [5] | Ki [5] | IC50 [6] | IC50 [7]

C[N+](C)(C)CCOP(=O)([O-])OC[C@H](O)CO
Not Active: IC50 [1] | IC50 [2] | Ki [2] | IC50 [3] | Ki [3] | IC50 [4] | IC50 [5] | Ki [5] | IC50 [6] | IC50 [7]

COc1cc(/C=C/C(=O)O)ccc1O [FERULATE]
Not Active: IC50 [1] | IC50 [2] | Ki [2] | IC50 [3] | Ki [3] | IC50 [4] | IC50 [5] | Ki [5] | IC50 [6] | IC50 [7]

NC(=O)NC(=O)Cc1ccccc1 [PHENACEMIDE]
Not Active: IC50 [1] | IC50 [2] | Ki [2] | IC50 [3] | Ki [3] | IC50 [4] | IC50 [5] | Ki [5] | IC50 [6] | IC50 [7]

NC(=O)CN1CCCC1=O
Not Active: IC50 [1] | IC50 [2] | Ki [2] | IC50 [3] | Ki [3] | IC50 [4] | IC50 [5] | Ki [5] | IC50 [6] | IC50 [7]

CC(C)Cn1cnc2c(N)nc3ccccc3c21 [IMIQUIMOD]
Not Active: IC50 [1] | IC50 [2] | Ki [2] | IC50 [3] | Ki [3] | IC50 [4] | IC50 [5] | Ki [5] | IC50 [6] | IC50 [7]

CCO [ALCOHOL]
Not Active: IC50 [1] | IC50 [2] | Ki [2] | IC50 [3] | Ki [3] | IC50 [4] | IC50 [5] | Ki [5] | IC50 [6] | IC50 [7]

C[C@H](C(=O)O)c1ccc2oc(-c3ccc(F)cc3)nc2c1 [FLUNOXAPROFEN]
Not Active: IC50 [1] | IC50 [2] | Ki [2] | IC50 [3] | Ki [3] | IC50 [4] | IC50 [5] | Ki [5] | IC50 [6] | IC50 [7]

O=C(O)c1ccccc1 [BENZOIC ACID]
Not Active: IC50 [1] | IC50 [2] | Ki [2] | IC50 [3] | Ki [3] | IC50 [4] | IC50 [5] | Ki [5] | IC50 [6] | IC50 [7]
